We go through 13 compounds from ChEMBL document CHEMBL4007498, “Design and synthesis of hybrids of diarylpyrimidines and diketo acids as HIV-1 inhibitors” (Bioorg Med Chem Lett, 2017).

Bounds are passed on as bounds.

Series [1] can be described thus: Selectivity index, ratio of CC50 for human MT4 cells to EC50 for wild type HIV1 3B. The class given is toxicity. The note with it: read-out: Ratio CC50/EC50.
The subject of series [2] is Human immunodeficiency virus 1. The experiment in a line: Antiviral activity against wild type HIV1 3B infected in human MT4 cells assessed as inhibition of viral replication after 5 days by MTT assay. In kind it is functional, cell-based. As to conditions: Human immunodeficiency virus 1, 3B, MT4, 120 h.
Series [3] concerns Human immunodeficiency virus 2. The series is described as follows: Antiviral activity against HIV2 ROD infected in human MT4 cells assessed as inhibition of viral replication after 5 days by MTT assay. The class given is functional, cell-based. The note with it: Human immunodeficiency virus 2, ISOLATE ROD, MT4, 120 h.
Series [4] in a line: Cytotoxicity against human MT4 cells assessed as decrease in cell viability after 5 days by MTT assay. In kind it is cell-based. For orientation: Formazan colour is commonly taken as a measure of viable cells.
The subject of series [5] is Human immunodeficiency virus 1. The experiment in a line: Antiviral activity against HIV1 RES056 harboring reverse transcriptase K103N/Y181C double mutant infected in human MT4 cells assessed as inhibition of viral replication after 5 days by MTT assay. The class given is functional, cell-based. The note with it: Human immunodeficiency virus 1, RES056, MT4, 120 h.
For series [6], the system named is Human immunodeficiency virus 1. The experiment in a line: Antiviral activity against HIV1 harboring reverse transcriptase L100I mutant infected in human MT4 cells assessed as inhibition of viral replication after 5 days by MTT assay. In kind it is functional, cell-based. As to conditions: Human immunodeficiency virus 1, MT4, 120 h.
For series [7], the system named is Human immunodeficiency virus 1. The series is described as follows: Antiviral activity against HIV1 harboring reverse transcriptase Y188L mutant infected in human MT4 cells assessed as inhibition of viral replication after 5 days by MTT assay. The class given is functional, cell-based. As to conditions: Human immunodeficiency virus 1, MT4, 120 h.
The subject of series [8] is Human immunodeficiency virus 1. The series is described as follows: Antiviral activity against HIV1 harboring reverse transcriptase E138K mutant infected in human MT4 cells assessed as inhibition of viral replication after 5 days by MTT assay. In kind it is functional, cell-based. As to conditions: Human immunodeficiency virus 1, MT4, 120 h.
Series [9] has as its system Human immunodeficiency virus 1. The experiment in a line: Antiviral activity against HIV1 harboring reverse transcriptase Y181C mutant infected in human MT4 cells assessed as inhibition of viral replication after 5 days by MTT assay. In kind it is functional, cell-based. As to conditions: Human immunodeficiency virus 1, MT4, 120 h.
The subject of series [10] is Human immunodeficiency virus 1. The series is described as follows: Antiviral activity against HIV1 harboring reverse transcriptase F227L/V106A double mutant infected in human MT4 cells assessed as inhibition of viral replication after 5 days by MTT assay. As to conditions: Human immunodeficiency virus 1, MT4, 120 h. The class given is functional, cell-based.
Series [11] relates to Human immunodeficiency virus 1. The experiment in a line: Antiviral activity against HIV1 harboring reverse transcriptase K103N mutant infected in human MT4 cells assessed as inhibition of viral replication after 5 days by MTT assay. In kind it is functional, cell-based. As to conditions: Human immunodeficiency virus 1, MT4, 120 h.
In series [12] the target is Human immunodeficiency virus type 1 reverse transcriptase (Human immunodeficiency virus 1, UniProt Q72547). The experiment in a line: Inhibition of recombinant wild type HIV-1 reverse transcriptase p66/p51 using poly(rA)/oligo(dT)16 as template/primer after 40 mins by ELISA. For orientation: In an ELISA, binding on a coated surface is turned into a signal by an enzyme label.

In general, EC50 refers to the concentration giving half of the maximal effect. One may read the CC50 as the concentration that lowers cell viability or growth by half. Take `O=C(O)C(=O)CC(=O)c1ccc(O)cc1`: the selectivity ratio in series [1] was determined as 1. The EC50 in [2] and in series [3] was > 600 µM each time. Moreover, the CC50 at 120 h in series [4] was > 600 µM.
On to `O=C1Nc2ccc(Cl)cc2[C@@](C#CC2CC2)(C(F)(F)F)O1` [EFAVIRENZ], for which the EC50 in series [5] is 0.12 to 0.17 µM; in series [6] it was 0.038 µM; in series [7] it was 0.17 µM; in series [8], 0.0047 µM; in [9], 0.0054 µM; in series [2], 0.0037 to 0.0054 µM. The EC50 in series [10] was 0.13 µM; in [11] it was 0.12 to 0.17 µM. In addition, the selectivity ratio in series [1] was in the range of 1720 to 2510. For the same compound, the CC50 at 120 h in [4] was 9 to 9.3 µM.
For `CCOC(=O)C(=O)CC(=O)c1ccc(O)cc1`, the selectivity ratio in series [1] was < 1. Also, the EC50 is > 466 µM in series [2] and > 312 µM in [3]. In addition, in [4], the CC50 at 120 h came to 466 µM.
As usually defined, the IC50 is the concentration at which inhibition is half-maximal. Take `O=C(O)/C(O)=C/C(=O)c1cccc(Cc2ccccc2)c1`: the IC50 in series [12] is > 100 µM. The selectivity ratio in series [1] was > 61. In addition, in series [4], the CC50 at 120 h was > 10 µM.
For the compound `Cc1cc(C#N)cc(C)c1Oc1nc(Nc2ccc(C#N)cc2)nc(N)c1Br` [ETRAVIRINE], the EC50 was 0.03 µM in [5]; 0.022 µM in series [7]; 0.015 µM in series [8]; 0.0033 µM in [2]; 0.022 µM in series [10]; 0.0036 to 0.004 µM in [11]. Moreover, the 50% cytotoxic concentration (CC50) at 120 h in [4] is 4.6 to 5 µM.
With `O=C(O)C(=O)CC(=O)c1cccc(O)c1`, the selectivity ratio in series [1] is < 1. Moreover, the 50% effective concentration (EC50) in series [2] and in series [3] was > 528 µM each time. In series [4], the CC50 at 120 h turned out to be 528 µM.
With `Cc1cn([C@H]2C[C@H](N=[N+]=[N-])[C@@H](CO)O2)c(=O)[nH]c1=O` [ZIDOVUDINE], the EC50 in series [5] is 0.008 to 0.01 µM; in series [6] it was 0.0052 µM; in series [7] it was 0.007 µM; in series [8], 0.009 µM; in [9] it was 0.0057 µM; in series [2] it was 0.0077 µM. Besides, the results for the EC50 in series [10] and in [11] were 0.0035 µM and 0.016 µM, respectively. Besides, the selectivity ratio in series [1] was in the range of 971 to 974. For the same compound, in [4], the CC50 at 120 h was 7 to 7.5 µM.
With `CCOC(=O)C(=O)CC(=O)c1cccc(Oc2ccnc(Nc3ccc(C#N)cc3)n2)c1`, in [12], the IC50 stood at 6.06 µM. The EC50 in [5] is 13 to 14 µM; in [6] it was > 13 µM; in series [7], > 13 µM; in [8] it was 10 µM; in [9], > 13 µM; in series [2], 0.18 µM. Besides, the values for the EC50 in [3], in series [10] and in series [11] were > 10 µM, > 13 µM and 13 to 14 µM, respectively. Besides, the selectivity ratio in series [1] was found to be 78. Further, in series [4], the CC50 at 120 h amounted to 14 µM.
In the case of `Cc1ccnc2c1NC(=O)c1cccnc1N2C1CC1` [NEVIRAPINE], the concentration for a half-maximal effect (EC50) is > 15 µM in series [5]; 1.8 µM in series [6]; > 15 µM in [7]; 0.21 µM in series [8]; > 15 µM in series [9]; 0.084 µM in [2]. Besides, the EC50 in series [10] and in series [11] was > 15 µM each time. Besides, the selectivity ratio in series [1] is > 179. In addition, the CC50 at 120 h in series [4] was > 15 µM.
Consider `CCOC(=O)C(=O)CC(=O)c1ccc(Oc2ccnc(Nc3ccc(C#N)cc3)n2)cc1`, for which the half-maximal inhibitory concentration (IC50) in series [12] was 5.86 µM. Moreover, the EC50 in series [5] was 18 to 22 µM; in series [6], > 22 µM; in series [7], > 22 µM; in series [8] it was 7 µM; in [9], > 22 µM; in series [2], 0.19 µM. In addition, the figures for the EC50 in [3], in [10] and in series [11] were > 16 µM, > 22 µM and 10 µM, respectively. In addition, the selectivity ratio in [1] was 95. The CC50 at 120 h in [4] was determined as 18 µM.
As to `CCOC(=O)C(=O)CC(=O)c1cccc(O)c1`, the selectivity ratio in [1] was < 1. Moreover, the EC50 was 356 to 357 µM in series [2] and > 357 µM in [3]. Besides, in series [4], the CC50 at 120 h was in the range of 356 to 364 µM.
Turning to `N#Cc1ccc(Nc2nccc(Oc3cccc(C(=O)CC(=O)C(=O)O)c3)n2)cc1`, the IC50 in series [12] worked out at 5.93 µM. The EC50 in series [5] is 9 to 10 µM; in series [6] it was > 10 µM; in series [7], > 10 µM; in [8] it was 43 µM; in series [9] it was 50 µM; in series [2], 0.14 µM. Further, the EC50 in [3] is > 8 µM; in series [10], 59 µM; in [11], 38 µM. Moreover, in series [1], the selectivity ratio is 71 to 442. Also, the CC50 at 120 h in series [4] lay within 10 to 62 µM.
Consider `N#Cc1ccc(Nc2nccc(Oc3ccc(C(=O)CC(=O)C(=O)O)cc3)n2)cc1`, for which the IC50 in series [12] is 25.2 µM. Further, the EC50 in series [5] is 42 to 48 µM; in series [6], > 48 µM; in [7], > 48 µM; in series [8] it was 10 µM; in [9] it was > 48 µM; in [2] it was 0.23 µM. The EC50 was > 28 µM in [3], > 48 µM in series [10] and 42 to 48 µM in series [11]. In addition, the selectivity ratio in [1] was 182 to 183. In addition, the CC50 at 120 h in [4] came to 42 µM.
